Results as given in publication PMC3111191, “Molecular Evolution of Multiple Arylalkylamine N-Acetyltransferase (AANAT) in Fish” (Marine Drugs, 2011).

Key:
[1] = molecular target: AANAT2 (Sparus aurata, UniProt Q68SL6); test: radiochemical assay, inhibition of tryptamine acetylation; assay type: biochemical; settings: read-out: % inhibition at 50 mM
[2] = molecular target: T1, AANAT1a (Sparus aurata, UniProt Q68SL7); test: as above; assay type: biochemical; settings: read-out: % inhibition at 5 mM
T1 construct: gene AANAT1
T1 sequence (Q68SL7 1-202): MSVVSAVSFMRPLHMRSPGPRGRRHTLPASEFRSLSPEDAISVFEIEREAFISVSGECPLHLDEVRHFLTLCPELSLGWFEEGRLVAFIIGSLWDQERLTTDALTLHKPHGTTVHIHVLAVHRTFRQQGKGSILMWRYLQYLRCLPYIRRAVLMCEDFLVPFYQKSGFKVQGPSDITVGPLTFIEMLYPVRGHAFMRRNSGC

AANAT2, sequence (Q68SL6 1-205): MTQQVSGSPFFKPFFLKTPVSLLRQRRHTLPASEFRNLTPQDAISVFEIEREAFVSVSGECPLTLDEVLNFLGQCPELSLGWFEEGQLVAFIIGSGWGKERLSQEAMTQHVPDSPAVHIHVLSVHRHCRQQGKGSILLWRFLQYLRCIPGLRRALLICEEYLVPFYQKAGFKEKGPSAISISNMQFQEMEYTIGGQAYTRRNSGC

inhibition at 50000 µM [1]: ~60% | inhibition at 5000 µM [2]: ~60%
Structure (SMILES): NCCc1ccc(O)c(O)c1 [dopamine]
